Measurements published in US20160220710A1, “COMPOSITIONS AND METHODS FOR DELIVERING PHARMACEUTICAL AGENTS” (THE REGENTS OF THE UNIVERSITY OF MICHIGAN, priority 2015, published 2016).

Tests used:
[1] = system: F4/80(+) peritoneal macrophages (PMΦ); assay: Flow cytometry of peritoneal exudate of CFZ-treated mice; format: in vivo
Text: Mice (4 week old, male C57Bl6) were purchased from the Jackson Laboratory (Bar Harbor, Me.) and acclimatized for 1 week in a specific-pathogen-free animal facility. Animal care was provided by the University of Michigan's Unit for Laboratory Animal Medicine (ULAM) and the experimental protocol was approved by the Committee on Use and Care of Animals in accordance with NIH guidelines. An oral diet containing CFZ was fed to mice as previously described (Baik J, et al., Antimicrob. Agents Chemother. 2013; 57:1218-30; Baik J, et al., PLoS One 2012; 7:e47494; Keswani R K, et al., Mol. Pharm. 2015:10). CFZ (C8895; Sigma-Aldrich, St. Louis, Mo., USA) was dissolved in sesame oil (Roland, China, or Shirakiku, Japan) to achieve a concentration of 3 mg/ml, which was mixed with Powdered Lab Diet 5001 (PMI International, Inc., St. Louis, Mo., USA) to produce a 0.03% drug to powdered feed mix. A corresponding amount of sesame oil was mixed with chow for vehicle treatment (control mice). On average, food consumption for a 25 g mouse was 3 g per day, resulting in 10 mg of bioavailable drug/kg per day. For CFZ treatment, the drug diet was administered for 8 weeks followed by regular chow for 8 weeks (washout phase).
Peritoneal lavage was done as previously reported before and after the initiation of CFZ or vehicle treatment (1 week, 2 weeks, 4 weeks, 8 weeks and 16 weeks (8 weeks drug feed+8 weeks washout phase)) (16). Mice were euthanized as described above followed by sterilization of the outer skin with 70% ethanol. A small incision was made along the midline of the abdomen followed by abdominal skin retraction up to the thoracic boundary and the animal extremities to expose the intact peritoneal wall. A smaller incision was then made on the peritoneal wall to expose the cavity. The entire peritoneal cavity was washed with ice-cold sterile PBS+5% FBS (5-10 ml) and collected as peritoneal exudate. The exudate was then centrifuged (100×g for 5 min, 4° C.) and resuspended in 1.5 ml of PBS+5% FBS. Cells were counted using a hemocytometer for viable cells using Trypan Blue and for CLDI-containing cells.
Peritoneal and alveolar lavage was performed as stated before to obtain the respective exudates. Purified Fc block CD16/32 (1 μl) was added for every 100,000 cells for analysis. For CLDI fluorescence signal experiments, cells were pelleted by centrifugation (100×g for 5 min) followed by resuspension in PBS+5% FBS (500 μl). For functional assays, antibodies—anti-F4/80-eFluor 450 (48-4801, Affymetrix eBioscience, San Diego, Calif., USA), anti-CD86-FITC (553691, BD Biosciences, San Jose, Calif., USA), anti-CD206-FITC (141704, BioLegend®, San Diego, Calif., USA), anti-CD11c-eFluor450 (48-0114, Affymetrix eBioscience) and anti-Ly6G-eFluor450 (48-5931, Affymetrix eBioscience) were added to the cell suspension at a loading of 1 μg/100,000 cells (1:10 volumetric ratio) and incubated in the dark (30 min, 4° C.). Following incubation, the samples were diluted with PBS and pelleted by centrifugation (100×g, 5 min). The supernatant was discarded and the pellet was re-suspended in 300 μl of PBS+2% FBS. Just prior to analysis, PI (5 μl per 1×10^6 cells) was added to the cells to assess viability. Sample measurements were done on a MoFlo® Astrios™ EQ. All gating and analysis was done on at least 10,000 live cells (PI(−) cell population) using FlowJo. CLDI(+) cells were gated either using 640 671/30 or 640 795/70. […] These cells also had extremely high side-scatter that were measured as saturated signals. This small sub-population of cells were not considered for evaluation of change of CD206 expression in the peritoneal macrophages.

[2] = system: caspase-3 and PARP cleavage; assay: Western blot of caspase 3, cleaved caspase 3 and cleaved PARP; format: cell-based, murine; settings: 4 and 10 μM, 24 h
[3] = system: TLR2, TLR4, TLR9 and MyD88; assay: Western blot of TLR2, TLR4, TLR9 and MyD88 in RAW 264.7 cells; format: cell-based, murine; settings: 24 h incubation
Experimental: The murine macrophage cell line RAW 264.7 was purchased from ATCC (Manassas, Va.) and maintained in DMEM (Life Technologies, Carlsbad, Calif.) supplemented with 10% FBS. Soluble CFZ or isolated CLDIs were added at various concentrations in DMEM with 5% FBS to 6-well plates containing 4×10^5 cells/well and incubated (24 h at 37° C. and 5% CO2). Culture supernatants were harvested at 24 h, centrifuged (1500×g for 5 min), and stored (−20° C.) in frozen aliquots prior to analysis. For experiments involving TLR stimulation, cells were washed twice with pre-warmed DPBS to remove extracellular, non-phagocytosed CLDIs or CFZ, and then the cells were serum-starved for 18 h in DMEM. Supernatants were collected from unstimulated cells and cells stimulated with 200 ng/ml Pam3 or 1 μg/ml LPS in DMEM.

SMILES: CC(C)/N=c1\cc2n(-c3ccc(Cl)cc3)c3ccccc3nc-2cc1Nc1ccc(Cl)cc1 [CFZ, 3-(p-chloroanilino)-10-(p-chlorophenyl)-2, 10-dihydro-2-isopropyliminophenazine]
- % CLDI(+) cells identified as F4/80(+) CD86(+) ([1]; 4 weeks post-drug feeding): ~38%
- % CLDI(+) cells identified as F4/80(+) CD206(+) ([1]; 4 weeks post-drug feeding): ~20%
- ratiometric CD86 median surface expression in CLDI(+) relative to CLDI(−) ([1]; 4 weeks post-drug feeding): ~1.17
- % of F4/80(+) PMΦ that were CLDI(+) ([1]; 8 weeks of washout): ~25%
- ratiometric CD86 median surface expression in CLDI(+) relative to CLDI(−) ([1]; 8 weeks post-drug feeding): 0.95
- % CLDI(+) cells identified as F4/80(+) CD86(+) ([1]; 8 weeks+8 weeks washout): ~70%
- % CLDI(+) cells identified as F4/80(+) CD206(+) ([1]; 8 weeks+8 weeks washout): ~81%
- CLDI accumulation within F4/80(+) CD86(+) cells ([1]; 8 weeks+8 weeks washout): ~95%
- CLDI(+)% as a proportion of F4/80(+) CD206(+) cells ([1]; 8 weeks+8 weeks washout): ~93%
- % of F4/80(+) PMΦ that were CLDI(+) ([1]; after 4 weeks of CFZ treatment): ~38%
- CLDI accumulation within F4/80(+) CD86(+) cells ([1]; after 4 weeks of CFZ treatment): ~31%
- CLDI(+)% as a proportion of F4/80(+) CD206(+) cells ([1]; after 4 weeks of CFZ treatment): ~15%
- % of F4/80(+) PMΦ that were CLDI(+) ([1]; after 8 weeks of treatment): ~61%
- % of total CLDI(+) cells localized to F4/80(+) peritoneal macrophages ([1]; all measured time points): > 85%
- PARP cleavage [2]: increased PARP cleavage
- TLR2 and TLR4 expression [3]: upregulated TLR2 and TLR4 expression
